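Cells were grown in 96-well plates and exposed to each compound for 48 hours at five concentrations; endpoints were interpolated linearly between bracketing concentrations, or set to the highest concentration if not reached. At the GI50, growth is halved.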 The source made the active and inactive calls. No stated cut-off is given here; in the data, active = GI50 up to about 1.1 µM and inactive = higher.
Experiments:
Assay in all cases: NCI tumour cell line growth inhibition, 48 h
786-0 = tested on: 786-0
HCT-116 = tested on: HCT-116
M14 = tested on: M14
MDA-MB-231 = tested on: MDA-MB-231
MDA-MB-435 = tested on: MDA-MB-435
NCI-H226 = tested on: NCI-H226
NCI-H460 = tested on: NCI-H460
NCI/ADR-RES = tested on: NCI/ADR-RES
OVCAR-3 = tested on: OVCAR-3
RXF 393 = tested on: RXF 393
SF-295 = tested on: SF-295
SF-539 = tested on: SF-539
SNB-75 = tested on: SNB-75
SR = tested on: SR
SW-620 = tested on: SW-620
TK-10 = tested on: TK-10
UACC-62 = tested on: UACC-62
ACHN = tested on: ACHN
HT-29 = tested on: HT-29
NCI-H522 = tested on: NCI-H522

| SMILES | GI50 (786-0) | GI50 (HCT-116) | GI50 (M14) | GI50 (MDA-MB-231) | GI50 (MDA-MB-435) | GI50 (NCI-H226) | GI50 (NCI-H460) | GI50 (NCI/ADR-RES) | GI50 (OVCAR-3) | GI50 (RXF 393) | GI50 (SF-295) | GI50 (SF-539) | GI50 (SNB-75) | GI50 (SR) | GI50 (SW-620) | GI50 (TK-10) | GI50 (UACC-62) | GI50 (ACHN) | GI50 (HT-29) | GI50 (NCI-H522) |
| --- | --- | --- | --- | --- | --- | --- | --- | --- | --- | --- | --- | --- | --- | --- | --- | --- | --- | --- | --- | --- |
| Cc1nc(O)nc(NNCc2ccc(Cl)cc2)c1C(=O)Nc1ccc(Cl)cc1 | > 100 µM (inactive) | > 100 µM (inactive) | > 100 µM (inactive) | > 100 µM (inactive) | 88.1 µM (inactive) | > 100 µM (inactive) | > 100 µM (inactive) | > 100 µM (inactive) | > 100 µM (inactive) | > 100 µM (inactive) | > 100 µM (inactive) | > 100 µM (inactive) | > 100 µM (inactive) | > 100 µM (inactive) | > 100 µM (inactive) | > 100 µM (inactive) | 3.69 µM (inactive) |  |  |  |
| COC(=O)C1=C(O)C(C(=O)OC)[C@]2(O)[C@H](C(=O)OC)[C@H]1C[C@@H](c1ccc(Cl)cc1)[C@H]2C(=O)OC (stereo partly specified) | 6.41 µM (inactive) | 5.28 µM (inactive) | 4.72 µM (inactive) | 16.5 µM (inactive) | 3.67 µM (inactive) | 8.18 µM (inactive) | 5.45 µM (inactive) | 3.29 µM (inactive) | 2.94 µM (inactive) | 4.62 µM (inactive) | 4.28 µM (inactive) | 4.22 µM (inactive) | 13.6 µM (inactive) | 4.17 µM (inactive) | 7.29 µM (inactive) | 13 µM (inactive) | 7.69 µM (inactive) | 7.45 µM (inactive) | 12 µM (inactive) |  |
| CCC(C#N)N(Cc1ccc(CN(C(=O)c2ccccc2)C(C#N)CC)cc1)C(=O)c1ccccc1 (stereo unspecified) | 19.2 µM (inactive) | 17.6 µM (inactive) | 36.6 µM (inactive) | 23.7 µM (inactive) | 25.5 µM (inactive) | 32.5 µM (inactive) |  | 18.2 µM (inactive) | 16.7 µM (inactive) | 28.1 µM (inactive) | 17.6 µM (inactive) | 18.6 µM (inactive) | 22.3 µM (inactive) | 54.6 µM (inactive) | 28.5 µM (inactive) | 12.9 µM (inactive) | 12.1 µM (inactive) | 26.4 µM (inactive) | 14.7 µM (inactive) | 23 µM (inactive) |
| CCN1/C(=C/C#C/C(C)=C\c2sc3ccccc3[n+]2CC)Sc2ccccc21 | 3.13 µM (inactive) | 0.738 µM (active) | 1.93 µM (inactive) | 4.42 µM (inactive) | 2.36 µM (inactive) | 0.631 µM (active) | 2.53 µM (inactive) | 3.53 µM (inactive) |  | 2.14 µM (inactive) | 2.94 µM (inactive) | 2.9 µM (inactive) | 1.53 µM (inactive) | 0.811 µM (active) | 0.593 µM (active) | 3.24 µM (inactive) | 2.55 µM (inactive) | 1.16 µM (inactive) | 1.35 µM (inactive) | 0.377 µM (active) |
| Cc1cc(S(=O)(=O)Nc2nc(N)n(-c3ccccc3)n2)c(S)cc1Cl | > 100 µM (inactive) | > 100 µM (inactive) | > 100 µM (inactive) | > 100 µM (inactive) | > 100 µM (inactive) | > 100 µM (inactive) | > 100 µM (inactive) | > 100 µM (inactive) | > 100 µM (inactive) | > 100 µM (inactive) |  | 86.3 µM (inactive) | > 100 µM (inactive) | > 100 µM (inactive) | > 100 µM (inactive) | > 100 µM (inactive) | > 100 µM (inactive) | > 100 µM (inactive) | > 100 µM (inactive) | > 100 µM (inactive) |
| COc1ccc(-n2c(N)c(C#N)c(C#N)c2-c2ccco2)cc1 | > 100 µM (inactive) | > 100 µM (inactive) | > 100 µM (inactive) | > 100 µM (inactive) | > 100 µM (inactive) | > 100 µM (inactive) |  | > 100 µM (inactive) | > 100 µM (inactive) | > 100 µM (inactive) | > 100 µM (inactive) | > 100 µM (inactive) | 11.9 µM (inactive) | > 100 µM (inactive) | > 100 µM (inactive) | > 100 µM (inactive) | 38.5 µM (inactive) | > 100 µM (inactive) | > 100 µM (inactive) | 46.7 µM (inactive) |
| Cn1c(-c2ccccc2)cc(-c2ccc3c(c2)OCO3)c1-c1ccsc1 | > 100 µM (inactive) | > 100 µM (inactive) | > 100 µM (inactive) | > 100 µM (inactive) | > 100 µM (inactive) | > 100 µM (inactive) | > 100 µM (inactive) | > 100 µM (inactive) | > 100 µM (inactive) | > 100 µM (inactive) | > 100 µM (inactive) | > 100 µM (inactive) | > 100 µM (inactive) | > 100 µM (inactive) | > 100 µM (inactive) | > 100 µM (inactive) | > 100 µM (inactive) | > 100 µM (inactive) | > 100 µM (inactive) |  |

From ChEMBL document CHEMBL1201862, “PubChem BioAssay data set” (2004)
